The results in this text go back to PubChem BioAssay (NCI).

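Results reflect a 48-hour exposure of cells in 96-well plates to compound at five concentrations. TGI marks complete inhibition of growth.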

Test in all cases: NCI tumour cell line growth inhibition, 48 h
Assay [1] deals with UACC-257 melanoma.
Assay [2] deals with MALME-3M melanoma.
The test system of assay [3] is SR leukemia.
In assay [4] the test system is SK-MEL-5 melanoma.
Assay [5] has as its system NCI-H460 lung.
Assay [6] relates to EKVX NSCLC.
The test system of assay [7] is SF-539 CNS.
Assay [8] deals with SNB-75 CNS.
The test system of assay [9] is CCRF-CEM leukemia.
Assay [10] deals with MCF7 breast.
The test system of assay [11] is PC-3 prostate.
Assay [12] deals with MOLT-4 leukemia.
The subject of assay [13] is NCI-H226 lung.
Assay [14] has as its system UO-31 renal.
The test system of assay [15] is OVCAR-4 ovarian.
The subject of assay [16] is SNB-19 CNS.
For assay [17], the system named is A498 renal.
The subject of assay [18] is NCI-H522 lung.
Assay [19] concerns M14 melanoma.
For assay [20], the system named is IGROV1 ovarian.

As for `C=C/C(C)=C\CC1[C@](C)(O)CC[C@H]2C(C)(C)C(O)CC[C@]12C` (stereo partly drawn), the TGI in assay [1], in assay [2], in [3], in [4], in assay [5] and in [6] was > 100 µM each time. In addition, the TGI in [7], in [8], in assay [9], in assay [10], in assay [11] and in assay [12] was > 100 µM throughout. In addition, the TGI in assay [13], in assay [14], in assay [15], in assay [16], in assay [17] and in [18] was > 100 µM in each case. In addition, the TGI in [19] and in assay [20] was > 100 µM throughout.
On to `N#Cc1ccc(CSC2=C(c3ccc(Cl)cc3)S/C(=C3\SC(SCc4ccc(C#N)cc4)=C(c4ccc(Cl)cc4)S3)S2)cc1`, for which the TGI in assay [1], in assay [2], in [3], in assay [4], in assay [5] and in assay [6] was > 100 µM each time. Moreover, the TGI in assay [7], in assay [9], in assay [10], in assay [11], in assay [12] and in [13] was > 100 µM each time. Also, the TGI in assay [15], in assay [16], in assay [17], in assay [18], in assay [19] and in [20] was > 100 µM each time.
As to `CCOC(=O)c1cc2c3c(c(C(C)=O)c(O)c2[nH]1)N(C(C)=O)CC3`, the TGI in [1], in [2], in assay [3], in assay [4], in assay [5] and in assay [6] was > 100 µM throughout. Further, the TGI in assay [7], in [8], in [9], in [10], in assay [11] and in assay [12] was > 100 µM each time. Besides, the TGI in assay [13], in [14], in assay [16], in [17], in assay [19] and in assay [20] was > 100 µM throughout.
Turning to `CC1(C)CC(=O)C2=C(C1)NC1=C(C2)C(=O)CC(C)(C)C1`, the TGI in assay [1], in assay [2], in assay [3], in assay [4], in [5] and in assay [6] was > 100 µM in each case. In addition, the TGI in assay [7], in [8], in [9], in assay [10], in assay [11] and in assay [12] was > 100 µM each time. Besides, the TGI in assay [13], in [14], in [15], in [16], in [17] and in assay [19] was > 100 µM throughout. The TGI in assay [20] was > 100 µM.
As for `O=c1[nH]nc(Cc2ccccc2)n1CCCl`, the TGI in assay [2], in [3], in assay [5], in assay [6], in assay [7] and in assay [8] was > 100 µM each time. Besides, the TGI in [9], in assay [10], in assay [11], in assay [12], in [13] and in [14] was > 100 µM in each case. Further, the TGI in assay [15], in [16], in [17], in assay [19] and in assay [20] was > 100 µM throughout.
With `CC(C)(C)OC(=O)NC(Cc1ccc(O)cn1)C(=O)O` (stereo not drawn), the TGI in assay [1], in assay [2], in [3], in assay [4], in assay [5] and in assay [6] was > 100 µM in each case. Besides, the TGI in [7], in assay [8], in [10], in assay [11], in assay [12] and in [13] was > 100 µM in each case. The TGI in assay [14], in [15], in [16], in [17], in assay [18] and in [20] was > 100 µM each time.
`C=C(C)[C@@]1(O)CCCC[C@@H]1CC(Sc1ccccc1)Sc1ccccc1`: the TGI in assay [1] is 48.7 µM; in assay [2], 26.2 µM; in assay [3], 34.8 µM; in assay [4], 29.5 µM; in assay [5], 29.4 µM; in [6] it was 28.7 µM. In addition, the TGI was 30 µM in assay [8]; > 100 µM in [9]; 53.9 µM in assay [10]; 34.8 µM in assay [11]; 32.5 µM in [12]; 32.1 µM in [13]. Moreover, the TGI is 31.5 µM in assay [14]; 29.1 µM in assay [15]; 38.3 µM in [16]; 68.4 µM in [17]; 26.5 µM in [18]; 39.3 µM in [19]. The same molecule showed a TGI in assay [20] of 33.6 µM.
On to `O=C(/C=C/c1ccc(C(F)(F)F)cc1)c1c([O-])on[n+]1-c1ccccc1`, for which the TGI is 6.93 µM in assay [1]; > 100 µM in assay [2]; 0.846 µM in [3]; 12.7 µM in assay [4]; 6.44 µM in [5]; 5.83 µM in assay [6]. Further, the TGI in assay [7] was 3.98 µM; in assay [8], 5.87 µM; in [9] it was 0.188 µM; in assay [10] it was > 34.5 µM; in assay [11] it was 9.2 µM; in assay [12] it was 2.04 µM. Moreover, the TGI in [13] is > 29.9 µM; in [14] it was 4 µM; in assay [15], 48.9 µM; in assay [16] it was 15.5 µM; in [17] it was 14.8 µM; in assay [19], 6.6 µM. Besides, the TGI in assay [20] turned out to be 4.02 µM.
